According to patent publication US20180344768A1, “NK CELL-BASED THERAPY” (Onkimmune Limited, priority 2016, published 2018):
Like-named read-outs stand apart in the source and are kept apart here.

How the values were obtained:
[1] = system: LIR2 gene; experiment: gRNA cleavage activity, T7E1 mismatch detection assay in K562 cells; type: cell-based, human; conditions: CRISPR/Cas9, agarose gel after T7E1
From the text: (§1) Two gRNA candidates were selected for each target gene and their cleavage efficacies in K562 cells determined. The sequences of the gRNA candidates are shown in Table 1 and the Protospacer Adjacent Motif (PAM) relates to the last 3 bases of the sequence. The flanking regions of the gRNA sequences on the LIR2 gene (SEQ ID NO: 1; amino acid translation SEQ ID NO: 2) and the CTLA4 gene (SEQ ID NO: 7; amino acid translation SEQ ID NO: 8) are shown in FIGS. 1 and 2, respectively.
(§2) K562 cells were transfected with the prepared gRNA constructs (FIG. 3) and subsequently harvested for PCR amplification. The presence of GFP expression was used to report successful incorporation of the gRNA construct into the K562 cells. This confirmed expression of the Cas9 gene and therefore the ability to knock out expression of the LIR2 and CTLA4 genes.
(§3) The cleavage activity of the gRNA constructs was determined using an in vitro mismatch detection assay. T7E1 endonuclease I recognizes and cleaves non-perfectly matched DNA, allowing the parental LIR2 and CTLA4 genes to be compared to the mutated genes following CRISPR/Cas9 transfection and non-homologous end joining (NHEJ).
The three bands corresponding to each mutation relate to the parental gene and the two resulting strands following detection of a mismatch in the DNA sequence after transfection.

[2] = system: DR5; conditions: 24 hours
Protocol: Bortezomib was bought from Millennium Pharmaceuticals. Mouse anti-human DR5-AF647 (catalog number: 565498) was bought from BD Pharmingen. The stained cell samples were analyzed on BD FACS Canto II.

[3] = system: MM1.S cells; experiment: Bortezomib-induced sensitization of MM1.S cells to KHYG-1 cells expressing TRAIL variant; type: cell-based; conditions: MM1.S pretreated with 2.5 nM for 24 hours, 1:1 ratio, 12 hours co-culture
Protocol: (2) 6 hours after electroporation of TRAIL variant mRNA, KHYG-1 cells were then cultured with MM cells in 12-well plate. After washing, cell concentrations were adjusted to 1×10^6/mL, before mixing KHYG-1 and MM1.S cells at 1:1 ratio to culture for 12 hours. (3) Flow cytometric analysis of the cytotoxicity of KHYG-1 cells was carried out. The co-cultured cells were collected, washed and then stained with CD2-APC antibody (5 uL/test), AnnexinV-FITC (5 uL/test) and SYTOX-Green (5 uL/test) using AnnexinV binding buffer. (4) Data were further analyzed using FlowJo 7.6.2 software. CD2-negative population represents MM.1S cells. KHYG-1 cells are strongly positive for CD2. Finally, the AnnexinV-FITC and SYTOX-Green positive cells in the CD2-negative population were analyzed.

[4] = system: CTLA4 gene; experiment: gRNA cleavage activity, T7E1 mismatch detection assay in K562 cells; type: cell-based, human; conditions: CRISPR/Cas9, agarose gel after T7E1
From the text: as §1, §2, §3

[5] = system: perforin; experiment: CMA-induced reduction of perforin expression in KHYG-1 cells; type: cell-based, human; conditions: 100 nM for 2 hours
Protocol: Mouse anti-human perforin-AF647 (catalog number: 563576) was bought from BD Pharmingen. Concanamycin A (catalog number: SC-202111) was bought from Santa Cruz Biotechnology. The stained cell samples were analyzed using a BD FACS Canto II. […] (2) KHYG-1 cells (6 hours after electroporation, cultured in penicillin/streptomycin free RPMI1640 medium) were further treated with 100 nM CMA or equal volume of vehicle (DMSO) for 2 hours. (3) The cells were collected (1×10^6 cells/test) by centrifugation (1500 rpm×5 minutes) and the supernatant was aspirated. (4) The cells were fixed in 4% paraformaldehyde in PBS solution at room temperature for 15 minutes. (5) The cells were washed with 4 mL of FACS Buffer (PBS, 0.5-1% BSA, 0.1% sodium azide) twice. (6) The cells were permeabilized with 1 mL of PBS/0.1% saponin buffer for 30 minutes at room temperature. (7) The cells were washed with 4 mL of PBS/0.1% saponin buffer. (8) The cells were re-suspended in 100 uL of PBS/0.1% saponin buffer, before adding 5 uL of the antibody to each tube and incubating for 30 minutes on ice. (9) The cells were washed with PBS/0.1% saponin buffer 3 times by centrifugation at 1500 rpm for 5 minutes. (10) The cells were re-suspended in 500 uL of ice cold FACS Buffer and kept in the dark on ice or at 4° C. in a fridge briefly until analysis. (11) The cells were analyzed on the flow cytometer (BD FACS Canto II). […]

[6] = system: KHYG-1 cells; experiment: KHYG-1 cell viability after CMA treatment; type: cell-based; conditions: 100 nM CMA or vehicle
[7] = system: MM1.S cells; experiment: Cytotoxicity of KHYG-1 cells with/without TRAIL variant in the presence of CMA; type: cell-based; conditions: 100 mM CMA for 2 hours, 1:1 ratio, 12 hours
Protocol: KHYG-1 cells were transfected with the TRAIL variant (TRAIL D269H/E195R), as described above in Example 6. (1) MM1.S cells were used as target cells. (2) 6 hours after electroporation of TRAIL mRNA, KHYG-1 cells were treated with […] CMA or an equal volume of vehicle for 2 hours. […] (5) The KHYG-1 and MM1.S cells were mixed at 1:1 ratio and co-cultured for 12 hours. (6) Flow cytometric analysis of the cytotoxicity of KHYG-1 cells was carried out. The co-cultured cells were washed and stained with CD2-APC antibody (5 uL/test). (7) After washing, further staining was performed with AnnexinV-FITC (5 uL/test) and SYTOX-Green (5 uL/test) using AnnexinV binding buffer. (8) Data were further analyzed using FlowJo 7.6.2 software. CD2-negative population represents MM1.S cells. KHYG-1 cells are strongly positive for CD2. The AnnexinV-FITC and SYTOX-Green positive cells in CD2-negative population were then analyzed.

[8] = biological target: T1, decoy receptor DcR1 (Homo sapiens, UniProt O14798); conditions: surface plasmon resonance; cited from earlier work
T1 sequence (O14798 26-236): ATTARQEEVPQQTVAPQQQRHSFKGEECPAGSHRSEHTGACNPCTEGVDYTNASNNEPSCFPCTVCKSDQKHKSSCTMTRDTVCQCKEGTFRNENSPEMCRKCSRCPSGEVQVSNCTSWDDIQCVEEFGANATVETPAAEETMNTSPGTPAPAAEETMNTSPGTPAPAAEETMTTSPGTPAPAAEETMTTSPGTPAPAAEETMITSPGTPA

[9] = biological target: DR4 (Homo sapiens, UniProt O00220); conditions: surface plasmon resonance; cited from earlier work
[10] = biological target: T2, DcR1 (Homo sapiens, UniProt O14798); conditions: D269H/E195R mutation vs wildtype TRAIL; cited from earlier work
T2 sequence (O14798 26-236): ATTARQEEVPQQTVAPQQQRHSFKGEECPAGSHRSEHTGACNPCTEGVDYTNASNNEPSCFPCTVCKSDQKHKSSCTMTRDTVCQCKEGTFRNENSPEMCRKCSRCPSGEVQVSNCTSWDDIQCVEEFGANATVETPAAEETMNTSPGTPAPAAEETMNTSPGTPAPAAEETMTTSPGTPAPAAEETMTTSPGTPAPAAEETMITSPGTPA

[11] = biological target: DR5 (Homo sapiens, UniProt O14763); conditions: D269H/E195R mutation vs wildtype TRAIL; cited from earlier work
[12] = biological target: T3, DcR2 (Homo sapiens, UniProt Q9UBN6); conditions: D269H/E195R mutation vs wildtype TRAIL; cited from earlier work
T3 sequence (Q9UBN6 56-386): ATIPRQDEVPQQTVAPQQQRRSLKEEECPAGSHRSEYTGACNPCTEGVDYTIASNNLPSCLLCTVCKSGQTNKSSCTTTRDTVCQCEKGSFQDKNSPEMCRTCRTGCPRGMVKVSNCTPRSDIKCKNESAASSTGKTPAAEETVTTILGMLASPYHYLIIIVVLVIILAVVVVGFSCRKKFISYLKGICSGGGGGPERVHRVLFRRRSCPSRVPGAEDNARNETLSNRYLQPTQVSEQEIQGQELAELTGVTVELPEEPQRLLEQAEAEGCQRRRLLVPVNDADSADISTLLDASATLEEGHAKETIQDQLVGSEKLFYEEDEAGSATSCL

g18 gRNA: gRNA candidate targeting hLIR2, CGAATCGCAGGTGGTCGCACAGG (SEQ ID NO: 4) (expressed or natural sequence; listed as Homo sapiens)
gRNA cleavage efficiency (LIR2 knockout) [1]: 10%

g9 gRNA: gRNA candidate targeting hLIR2, GAGTCACAGGTGGCATTTGGCGG (SEQ ID NO: 3) (expressed or natural sequence; listed as Homo sapiens)
gRNA cleavage efficiency (LIR2 knockout) [1]: 11%

CC(C)C[C@H](NC(=O)[C@H](Cc1ccccc1)NC(=O)c1cnccn1)B(O)O [Bortezomib]
DR5 expression ([2]; MM1.S cells, low dose): increase
DR5 expression ([2]; MM cells, high doses): could not be upregulated
DR5 expression ([2]; RPMI8226 cells, low dose): increase
sensitivity of MM cells to KHYG-1 cells expressing the TRAIL variant [3]: induced sensitivity

g7 gRNA: gRNA candidate targeting hCTLA4, CACTCACCTTTGCAGAAGACAGG (SEQ ID NO: 9) (expressed or natural sequence; listed as Homo sapiens)
gRNA cleavage efficiency at CTLA4 (T7E1) [4]: 32%

C/C=C/[C@H]1O[C@@](O)([C@@H](C)[C@H](O)[C@H](C)[C@H]2OC(=O)/C(OC)=C/C(C)=C/[C@@H](C)[C@@H](O)[C@@H](CC)[C@@H](O)[C@H](C)C/C(C)=C/C=C/[C@@H]2OC)C[C@@H](O[C@H]2C[C@@H](O)[C@H](OC(N)=O)[C@@H](C)O2)[C@@H]1C [CMA, Concanamycin A]
perforin expression level [5]: significantly decreased
viability of KHYG-1 cells [6]: no negative effects
effect of CMA on cytotoxic activity of NK cells expressing TRAIL variant [7]: unable to significantly diminish

g15 gRNA: gRNA candidate targeting hCTLA4, CCTTGTGCCGCTGAAATCCAAGG (SEQ ID NO: 10) (expressed or natural sequence; listed as Homo sapiens)
gRNA cleavage efficiency at CTLA4 (T7E1) [4]: 26%

Wildtype TRAIL: wildtype TRAIL ligand (CD253)
Kd [8]: > 20 nM
Kd [9]: > 2 nM

B1: TRAIL variant: described in WO 2009/077857; encoded by the wildtype TRAIL gene containing the D269H/E195R mutation (protein)
chain: MAMMEVQGGPSLGQTCVLIVIFTVLLQSLCVAVTYVYFTNELKQMQDKYSKSGIACFLKEDDSYWDPNDEESMNSPCWQVKWQLRQLVRKMILRTSEETISTVQEKQQNISPLVRERGPQRVAAHITGTRGRSNTLSSPNSKNEKALGRKINSWESSRSGHSFLSNLHLRNGELVIHEKGFYYIYSQTYFRFQERIKENTKNDKQMVQYIYKYTSYPDPILLMKSARNSCWSKDAEYGLYSIYQGGIFELKENDRIFVSVTNEHLIDMHHEASFFGAFLVG
affinity for decoy receptor DcR1 [10]: reducing the affinity
affinity for DR5 [11]: significantly increases the affinity
affinity for decoy receptor DcR2 [12]: reducing the affinity
